Counter-ions that a name gives are not always drawn.
Assay: Self-assembly of CAD with DOPE (50:50) into vesicles, ethanol dilution or lipid film hydration
Type: physicochemical
Conditions: CAD:DOPE 50:50
Experimental: Preparation of CAD-DOPE nanoparticles. […] The lipids DOTAP (1,2-dioleoyl-3-trimethylammonium-propane) and DOPE (1,2-dioleoyl-sn-glycero-3-phosphoethanolamine) were purchased from Avanti Polar Lipids (Alabaster, USA).
For the ethanol dilution (ED) method, CADs (10 mg/ml) and DOPE (25 mg/ml) were separately dissolved in absolute ethanol. […] For the lipid film hydration method CAD (10 mg/ml) and DOPE (25 mg/ml) were dissolved in chloroform (50:50 mol ratio) and transferred to a brown glass vial, followed by chloroform evaporation under nitrogen flow. […] The classically used cationic DOTAP-DOPE liposomes (50:50 mol ratio) were likewise prepared via lipid film hydration, as previously reported in literature and diluted in HEPES buffer (pH 7.4, 20 mM) to obtain a final lipid concentration of 3.9 mM. Hydrodynamic diameter, polydispersity index (PDI) and zeta-potential of all formulations were determined via dynamic light scattering (DLS) (Zetasizer Nano, Malvern Instruments, Worcestershire, United Kingdom).

| SMILES | vesicle formation with DOPE |
| --- | --- |
| CN(C)CCC=C1c2ccccc2CCc2ccccc21 [Amitriptyline hydrochloride] | successful vesicle formation |
| CNCCCN1c2ccccc2CCc2ccccc21 [Desipramine hydrochloride] | successful vesicle formation |
| Clc1ccc2c(c1)CCc1cccnc1C2=C1CCNCC1 [Desloratadine] | successful vesicle formation |
| CN1CCC(=C2c3ccccc3CC(=O)c3sccc32)CC1 [Ketotifen] | did not self-assemble with DOPE |

Continued, values first:

| vesicle formation with DOPE | SMILES |
| --- | --- |
| did not self-assemble with DOPE | NC1=NCC2c3ccccc3Cc3ccccc3N12 (stereo not drawn) [Epinastine] |
| successful vesicle formation | CN(C)CCCN1c2ccccc2CCc2ccccc21 [Imipramine hydrochloride] |

Reference: patent US20250381149A1, “CATIONIC AMPHIPHILIC COMPOUND-BASED NANOPARTICLE COMPOSITIONS” (Universiteit Gent, priority 2022, published 2025)
